Measurements from US7193079B1 (Board of Trustees of Michigan State University, priority 2003, dated 2007).
pIC50: −log10 of the molar value.

Assays:
TNF-α production = experiment: Inhibition of TNF-α production measured by competitive EIA in LPS stimulated THP-1 cells; assay type: cell-based, human; settings: for pIC50: EIA, 3 hr incubation, means of two experiments, standard deviation in parentheses
Procedure: (§1) Exposure of human Jurkat leukemia T-cells to phorbol myristate acetate (PMA/PHA) and THP-1 cells to lipopolysaccharide (LPS), activates NF-κB mediated gene transcription of several pro-inflammatory cytokines, including IL-2, IL-6, IL-8 and TNF-α (Baldwin, Ann. Rev. Immunol. 14: 649–683 (1996); Grilli et al., Int. Rev. Cytol. 143: 1–62 (1993)). […] The inhibition of IL-2 was evaluated in Jurkat cells after PMA/PHA activation (Mahon and O'Neill, J. Biol. Chem. 270: 28557–28564 (1995); Lindgren et al., Molec. Immunol. 38V 267–277 (2001)). The inhibition of TNF-α was evaluated in THP-1 cells after LPS activation (Aikawa et al., Inflamm. Res. 51: 188–194 (2002)). […] After 24 hours, the cell free supernatant fractions were collected and subjected to EIA for the quantification of total IL-2 production.
The assay measured the ability of the compounds to inhibit TNF-α production in LPS stimulated THP-1 cells (Aikawa et al., Inflamm. Res. 51V 188–194 (2002)).
THP-1 cells are grown in RPMI-1640 Media (Gibco-BRL, Rockville, Md.) supplemented with 5% fetal bovine serum, penicillin (614 ηg/mL), streptomycin (10 μg/mL) and HEPES buffer, pH 7.2 at 37° C., 5% CO2. To each well of a flat bottomed 96 well culture plate 0.2 mL 1×10^6 THP-1 cells/mL were added. Each sample was then treated in duplicate with the compounds in DMSO at either 10 μM, 1 μM, 0.1 μM or 10 ηM and allowed to incubate for thirty minutes at 37° C., 5% CO2. Cell free supernatant fractions were collected from stimulated cultures incubated for 3 hr at 37° C., 5% CO2. Cultures were stimulated with LPS (Sigma-Aldrich, St. Louis, Mo.) at 1 μg/mL. The concentration of TNF-α in each sample was then measured using a competitive enzyme immunoassay (Neogen Corporation, Lansing, Mich.) according to the manufacturer's protocol. To make a standard curve, known TNF-α concentrations were plotted and fitted to a 4 parameter logistic curve. Unknown concentrations were then extrapolated from the standard curve.

GSK-3β = GSK-3β (Homo sapiens, UniProt P49841); experiment: Inhibition of GSK-3β (method of Meijer et al.); assay type: biochemical
CK2 (h) = target: T1, CK2 (h) (Homo sapiens, UniProt P68400); experiment: Upstate Kinase Profiler in vitro kinase assay, CK2; assay type: biochemical; settings: 10 μM ATP
T1 construct: purchased Upstate, UK (Kinase Profiler service)
Procedure: (§2) The potent inhibitory activity of the indoloazepines against checkpoint kinases Chk1 and Chk2 was determined. In vitro kinase Assay: Compound 2 was tested in vitro against the kinases indicated by Upstate, UK using a Kinase Profiler Assay according to the manufacturer's protocol. Briefly, in a final volume of 25 μl, the kinase was incubated with the desired buffer and the required polypeptide substrate, in presence of 10 mM magnesium acetate and γ-^33P-ATP (10 μM). After incubation for 40 minutes at room temperature, the reaction was stopped by the addition of 3% H3PO4 (5 μl). A 10 μl of the reaction was then spotted on a P30 filtermat and washed 3× in 75 mM H3PO4 and finally in methanol. Samples were then dried and signals counted on a scintillation counter. […] The results are shown in FIGS. 8 and 9 for CHK1 and CHK2.

PKCβII (h) = target: T2, PKCβII (h) (Homo sapiens, UniProt P05771); experiment: Upstate Kinase Profiler in vitro kinase assay, PKCβII; assay type: biochemical; settings: 10 μM ATP
T2 construct: purchased Upstate, UK (Kinase Profiler service)
Procedure: as §2

MEK1 (h) = target: T3, MEK1 (h) (Homo sapiens, UniProt Q02750); experiment: Upstate Kinase Profiler in vitro kinase assay, MEK1; assay type: biochemical; settings: 10 μM ATP
T3 construct: purchased Upstate, UK (Kinase Profiler service)
Procedure: as §2

CEM leukemia cells = experiment: Inhibition of cell growth in CEM leukemia cells (trypan blue counting); assay type: cell-based; settings: 48 hour, means of two experiments, standard deviation in parentheses
Procedure: Cells were treated at different concentrations ranging from 10 ηM to 5 μM concentrations over a 48 hour time period.
CEM cells (CCRF-CEM; ATCC No. CCL-119, American Type Culture Collection, Manassas, Va.) were grown in RPMI-1640 Media (Gibco-BRL, Rockville, Md.) supplemented with 10% Fetal Bovine Serum, penicillin (614 r1 g/mL), streptomycin (10 μg/mL) and HEPES buffer, pH 7.2 at 37° C., 5% CO2. DMSO was used as the vector for all drugs and added in the control experiments. Cell cultures were then treated with 10 μM, 1 μM, 0.1 μM or 10 ηM of the drug in duplicate and allowed to incubate at 37° C., 5% CO2. Cells were stained with 4% trypan blue solution in PBS, and counted under the microscope (Thomas Scientific, Fisher Scientific) in duplicate. This was repeated for Oh, 2 h, 6 h, 12 h, 24 h, and 48 h. The data points obtained were then plotted and a point-to-point curve was drawn to determine the effect of the drug on the cells.

CDK1 = experiment: Inhibition of CDK1 (method of Meijer et al.); assay type: biochemical
From the text: The inhibitory activity of compound 3 was less pronounced.

CK1δ (h) = target: T4, CK1δ (h) (Homo sapiens, UniProt P48730); experiment: Upstate Kinase Profiler in vitro kinase assay, CK1δ; assay type: biochemical; settings: 10 μM ATP
T4 construct: purchased Upstate, UK (Kinase Profiler service)
Procedure: as §2

PKCα (h) = target: T5, PKCα (h) (Homo sapiens, UniProt P17252); experiment: Upstate Kinase Profiler in vitro kinase assay, PKCα; assay type: biochemical; settings: 10 μM ATP
T5 construct: purchased Upstate, UK (Kinase Profiler service)
Procedure: as §2

CHK1 [1] = target: T6, CHK1 (Homo sapiens, UniProt O14757); experiment: Upstate Kinase Profiler in vitro kinase assay, CHK1; assay type: biochemical; settings: 10 μM ATP
T6 sequence (O14757 1-476): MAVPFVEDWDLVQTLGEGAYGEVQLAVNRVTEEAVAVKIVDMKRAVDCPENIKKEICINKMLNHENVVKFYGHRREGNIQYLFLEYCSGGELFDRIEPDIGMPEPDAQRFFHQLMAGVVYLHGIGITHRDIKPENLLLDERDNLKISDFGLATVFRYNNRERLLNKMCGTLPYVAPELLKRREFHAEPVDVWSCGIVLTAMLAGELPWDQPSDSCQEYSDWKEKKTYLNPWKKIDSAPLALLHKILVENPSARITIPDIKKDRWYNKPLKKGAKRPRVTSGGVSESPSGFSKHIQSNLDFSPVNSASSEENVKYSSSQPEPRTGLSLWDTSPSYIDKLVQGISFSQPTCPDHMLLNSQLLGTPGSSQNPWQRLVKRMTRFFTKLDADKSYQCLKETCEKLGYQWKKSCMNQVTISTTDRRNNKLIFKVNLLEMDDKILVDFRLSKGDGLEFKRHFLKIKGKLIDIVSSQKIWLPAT
Procedure: as §2, with “In” for “The potent inhibitory activity of the indoloazepines against checkpoint kinases Chk1 and Chk2 was determined. In”

CHK2 = target: T7, CHK2 (Homo sapiens, UniProt O96017); experiment: Upstate Kinase Profiler in vitro kinase assay, CHK2; assay type: biochemical; settings: 10 μM ATP
T7 construct: purchased Upstate, UK (Kinase Profiler service)
Procedure: as §2, with “In” for “The potent inhibitory activity of the indoloazepines against checkpoint kinases Chk1 and Chk2 was determined. In”

IL-2 production = experiment: Inhibition of IL-2 production measured by competitive EIA in PMA/PHA-activated Jurkat T cells; assay type: cell-based, human; settings: for pIC50: PMA/PHA-activated Jurkat T cells, EIA, means of two experiments, standard deviation in parentheses
Procedure: as §1
To each well of a flat bottomed 96 well culture plate 0.2 mL 1×10^6 Jurkat E6-1 cells/mL were added. Each sample was then treated in duplicate with the compounds in DMSO at either 10 μM, 1 μM, 0.1 μM or 10 ηM and allowed to incubate for thirty minutes at 37° C., 5% CO2. Cell free supernatant fractions were collected from stimulated cultures incubated for 24 hr at 37° C., 5% CO2. Cultures were stimulated with phytohemagglutinin (PHA, Sigma-Aldrich, St. Louis, Mo.) at 1 μg/mL; and phorbol myristate acetate (PMA, Sigma-Aldrich, St. Louis, Mo.) at 50 ng/mL. The concentration of IL-2 in each sample was then measured using a competitive enzyme immunoassay (Neogen Corporation, Lansing, Mich.) according to the manufacturer's protocol. Known IL-2 concentrations were plotted and fit a 4 parameter logistic curve. Unknown concentrations were then extrapolated from the standard curve.

NF-κB-DNA binding = experiment: EMSA for NF-κB-DNA binding in nuclear extracts of PMA/PHA-activated Jurkat cells; assay type: cell-based, human; settings: for Inhibition of DNA-binding (relative to activated control) / Count per mm^2 NF-κB bands: EMSA; for Inhibition of DNA-binding (relative to activated control): PMA-activated Jurkat cells; for Count per mm^2 NF-κB bands: activated control 105.55
Procedure: Human Jurkat leukemia T-cells (clone E6-1; ATCC No. […] The Jurkat cells (1×10^6 cells/mL) are subsequently treated with various concentrations of the compounds in DMSO for 30 min. at 37° C. and 5% CO2 followed by PMA (50 ng/mL) and PHA ([…]) stimulation for an additional 30 minutes. The cells were harvested by centrifugation, washed in ice cold PBS and the nuclear extracts were prepared as previously described (Dignam et al., Nucl. Acids Res. 11: 1475-1489 (1983)). The protein concentration of the extracts was determined according to the Method of Bradford (1976) with BioRad reagents. Nuclear extracts were incubated for 20 minutes at room temperature with a double stranded Cy3 labeled NF-κB consensus oligonucleotide, [NT] ID NO:1). The binding mixture (25 μL) contained 10 mM HEPES-NaOH pH 7.9, 4 mM Tris-HCL, pH 7.9, 6.0 mM KCl, 1 mM EDTA, 1 mM DTT, 10% glycerol, 0.3 mg/mL bovine serum albumin, and 1 μg of poly (dI:dC). The binding mixtures (10 μg of nuclear extract protein) were incubated for 20 minutes at room temperature with 0.16 pmol of Cy3 labeled oligonucleotide. The mixture was loaded on a 4% polyacrylamide gel prepared in 1× TRIS borate/EDTA buffer and was electrophoresed at 200 V for 20 minutes. After electrophoresis the gel was analyzed using a phosphorimager (BIORAD FX PLUS, Biorad Laboratories, Inc., Hercules, Calif.) for detection of NF-κB-DNA binding.

CHK1 [2] = target: T6, CHK1; settings: natural products, general statement; cited from earlier work

T7 sequence (O96017 whole entry): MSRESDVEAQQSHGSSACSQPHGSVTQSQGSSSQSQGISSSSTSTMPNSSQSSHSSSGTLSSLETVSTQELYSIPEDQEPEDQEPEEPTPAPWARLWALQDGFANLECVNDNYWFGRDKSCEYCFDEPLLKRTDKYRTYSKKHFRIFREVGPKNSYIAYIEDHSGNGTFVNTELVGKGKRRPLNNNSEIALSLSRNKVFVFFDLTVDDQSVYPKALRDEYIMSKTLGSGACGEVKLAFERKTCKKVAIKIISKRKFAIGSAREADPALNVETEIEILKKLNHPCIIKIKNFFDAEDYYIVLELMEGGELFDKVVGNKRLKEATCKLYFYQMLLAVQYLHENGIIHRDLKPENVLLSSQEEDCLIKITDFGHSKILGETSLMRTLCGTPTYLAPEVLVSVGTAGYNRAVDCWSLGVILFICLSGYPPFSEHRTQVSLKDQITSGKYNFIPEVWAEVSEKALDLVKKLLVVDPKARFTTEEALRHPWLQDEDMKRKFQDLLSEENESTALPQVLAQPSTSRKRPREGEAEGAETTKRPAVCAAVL
Sequence of GSK-3β (P49841 whole entry, species assumed): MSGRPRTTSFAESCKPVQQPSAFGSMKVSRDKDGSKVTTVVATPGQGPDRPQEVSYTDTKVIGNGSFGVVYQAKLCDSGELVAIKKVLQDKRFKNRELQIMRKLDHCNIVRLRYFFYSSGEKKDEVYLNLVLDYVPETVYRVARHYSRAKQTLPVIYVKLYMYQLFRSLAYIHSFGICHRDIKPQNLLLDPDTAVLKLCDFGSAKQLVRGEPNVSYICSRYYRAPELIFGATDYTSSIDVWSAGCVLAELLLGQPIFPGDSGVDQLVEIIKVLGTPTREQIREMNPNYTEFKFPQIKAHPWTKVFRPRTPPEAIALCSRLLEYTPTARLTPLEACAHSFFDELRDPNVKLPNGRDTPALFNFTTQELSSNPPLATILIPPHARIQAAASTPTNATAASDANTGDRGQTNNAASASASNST
T3 sequence (Q02750 whole entry): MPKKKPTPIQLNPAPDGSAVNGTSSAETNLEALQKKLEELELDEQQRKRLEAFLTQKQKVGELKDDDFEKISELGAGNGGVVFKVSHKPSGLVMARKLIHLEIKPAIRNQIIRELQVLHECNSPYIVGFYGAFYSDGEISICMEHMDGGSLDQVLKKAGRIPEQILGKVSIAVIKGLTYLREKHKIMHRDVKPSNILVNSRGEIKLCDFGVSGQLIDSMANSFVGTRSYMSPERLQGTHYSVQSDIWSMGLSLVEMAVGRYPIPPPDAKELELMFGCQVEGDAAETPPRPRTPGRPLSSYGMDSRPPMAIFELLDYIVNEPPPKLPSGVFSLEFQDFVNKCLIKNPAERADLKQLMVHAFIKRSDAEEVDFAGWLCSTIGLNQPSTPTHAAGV
T1 sequence (P68400 whole entry): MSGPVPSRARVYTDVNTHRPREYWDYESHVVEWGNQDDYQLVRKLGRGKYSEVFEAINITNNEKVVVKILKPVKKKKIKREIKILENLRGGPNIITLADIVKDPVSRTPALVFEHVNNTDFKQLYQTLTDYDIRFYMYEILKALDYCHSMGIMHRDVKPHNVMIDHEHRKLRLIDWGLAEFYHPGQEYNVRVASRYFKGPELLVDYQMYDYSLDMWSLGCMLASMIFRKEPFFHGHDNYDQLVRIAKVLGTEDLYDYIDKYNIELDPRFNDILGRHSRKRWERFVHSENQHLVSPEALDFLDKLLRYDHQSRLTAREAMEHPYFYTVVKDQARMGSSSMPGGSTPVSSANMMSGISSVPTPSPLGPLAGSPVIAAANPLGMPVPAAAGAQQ
T1 sequence (P67870 whole entry partner): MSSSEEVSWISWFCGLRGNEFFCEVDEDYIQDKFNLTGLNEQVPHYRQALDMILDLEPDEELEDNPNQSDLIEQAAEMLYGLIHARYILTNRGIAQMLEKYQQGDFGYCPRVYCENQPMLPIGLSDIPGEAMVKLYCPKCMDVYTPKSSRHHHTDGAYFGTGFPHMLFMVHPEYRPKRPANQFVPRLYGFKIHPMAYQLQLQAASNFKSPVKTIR
T4 sequence (P48730 whole entry): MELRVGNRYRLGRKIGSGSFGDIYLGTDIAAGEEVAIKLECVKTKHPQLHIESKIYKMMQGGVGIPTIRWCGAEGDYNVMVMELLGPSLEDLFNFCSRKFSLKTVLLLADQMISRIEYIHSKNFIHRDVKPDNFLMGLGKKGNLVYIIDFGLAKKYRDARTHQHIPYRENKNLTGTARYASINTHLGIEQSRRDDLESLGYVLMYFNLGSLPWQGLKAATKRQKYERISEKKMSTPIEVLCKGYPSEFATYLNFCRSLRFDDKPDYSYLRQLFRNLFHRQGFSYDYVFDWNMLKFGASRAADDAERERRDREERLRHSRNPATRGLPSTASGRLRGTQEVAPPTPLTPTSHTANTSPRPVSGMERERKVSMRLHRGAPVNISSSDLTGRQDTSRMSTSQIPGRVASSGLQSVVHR
T2 sequence (P05771 1-673 isoform P05771-2): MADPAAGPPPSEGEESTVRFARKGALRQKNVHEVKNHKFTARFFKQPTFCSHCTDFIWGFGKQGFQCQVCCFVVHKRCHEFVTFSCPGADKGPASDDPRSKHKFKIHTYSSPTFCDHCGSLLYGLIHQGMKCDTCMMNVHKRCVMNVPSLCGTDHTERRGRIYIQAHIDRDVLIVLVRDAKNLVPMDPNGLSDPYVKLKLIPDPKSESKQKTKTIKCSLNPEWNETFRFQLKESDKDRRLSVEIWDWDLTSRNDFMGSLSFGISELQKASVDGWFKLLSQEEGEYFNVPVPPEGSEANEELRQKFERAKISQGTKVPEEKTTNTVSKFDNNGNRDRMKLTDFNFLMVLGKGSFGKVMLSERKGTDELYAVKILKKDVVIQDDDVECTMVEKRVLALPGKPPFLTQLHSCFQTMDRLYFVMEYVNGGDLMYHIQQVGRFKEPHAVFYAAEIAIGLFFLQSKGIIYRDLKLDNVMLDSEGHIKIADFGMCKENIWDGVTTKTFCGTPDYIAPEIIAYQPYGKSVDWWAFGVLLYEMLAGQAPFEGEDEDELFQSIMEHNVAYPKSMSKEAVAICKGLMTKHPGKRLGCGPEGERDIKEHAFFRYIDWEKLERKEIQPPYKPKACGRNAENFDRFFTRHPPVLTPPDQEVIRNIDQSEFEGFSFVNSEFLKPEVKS

Row | pIC50 (TNF-α production) | pIC50 (TNF-α production; Homo sapiens, THP-1, 3 h) | pIC50 (GSK-3β) | GI50 (CEM leukemia cells) | pIC50 (CDK1) | pIC50 (IL-2 production; Homo sapiens, Jurkat, 24 h) | pIC50 (IL-2 production; 24 hr) | pIC50 (TNF-α production; Homo sapiens) | pIC50 (IL-2 production; Homo sapiens, 24 hr) | SMILES | Inhibition of DNA-binding (relative to activated control) (NF-κB-DNA binding; 1.0 μM) | Count per mm^2 NF-κB bands (NF-κB-DNA binding; 1.0 μM) | Inhibition of DNA-binding (relative to activated control) (NF-κB-DNA binding; 5.0 μM) | Count per mm^2 NF-κB bands (NF-κB-DNA binding; 5.0 μM) | also measured
1 | – | – | < 5.00 | 14300 nM | < 5.00 | – | – | < 5.00 | < 5.00 | Cn1c2c(c3ccccc31)C(=C1N=C(N)NC1=O)CCNC2=O [Compound 3, 5-(2-amino-5-oxo-1,5-dihydro-imidazol-4-ylidene)-10-methyl-3,4,5,10-tetrahydro-2H-azepino[3,4-b]indol-1-one] | 0% | 118.82 Count per mm^2 | 0% | 121.76 Count per mm^2 | Inhibition of TNF-α production (in words) (TNF-α production; tested up to 10 μM): did not have any significant activity; melting point: > 260 °C; Inhibition of NF-κB-DNA binding (in words) (NF-κB-DNA binding; measured up to concentrations of 5 μM): did not appear to substantially inhibit DNA binding; Inhibition of IL-2 production (in words) (IL-2 production; Jurkat cells, measured up to 10 μM): no significant inhibition of IL-2 production
2 | 5.87 | 5.85 | – | 1610 nM | – | 5.62 | 5.62 | – | – | NC1=NC(=O)/C(=C2\CCNC(=O)c3[nH]c(Br)cc32)N1 [Hymenialdisine 1, hymenialdisine, reference compound] | – | 102.14 Count per mm^2 | – | 57.06 Count per mm^2 | –
3 | – | – | – | – | – | – | – | 5.21 | 5.29 | S=C(S)N1CCCC1 [PDTC, pyrrolidinedithiocarbamate, reference compound] | 30% | 73.48 Count per mm^2 | 51% | 51.68 Count per mm^2 | –

Second part, the compound before the results:

Row | SMILES | pIC50 (TNF-α production) | pIC50 (TNF-α production; Homo sapiens, THP-1, 3 h) | pIC50 (GSK-3β) | GI50 (CEM leukemia cells) | pIC50 (CDK1) | pIC50 (IL-2 production; Homo sapiens, Jurkat, 24 h) | pIC50 (IL-2 production; 24 hr) | pIC50 (TNF-α production; Homo sapiens) | pIC50 (IL-2 production; Homo sapiens, 24 hr) | Inhibition of DNA-binding (relative to activated control) (NF-κB-DNA binding; 1.0 μM) | Count per mm^2 NF-κB bands (NF-κB-DNA binding; 1.0 μM) | Inhibition of DNA-binding (relative to activated control) (NF-κB-DNA binding; 5.0 μM) | Count per mm^2 NF-κB bands (NF-κB-DNA binding; 5.0 μM) | also measured
4 | NC1=N/C(=C2/CCNC(=O)c3[nH]c4ccccc4c32)C(=O)N1 [Compound 2, 5-(2-amino-5-oxo-1,5-dihydro-imidazol-4-ylidene)-3,4,5,10-tetrahydro-2H-azepino[3,4-b]indol-1-one] | 5.09 | 5.09 | 6.82 | 1730 nM | 6.40 | 5.46 | 5.45 | – | – | – | – | – | – | pIC50 (CK2 (h)): < 5.00; pIC50 (PKCβII (h)): 5.47; pIC50 (MEK1 (h)): 7.05; pIC50 (CK1δ (h)): 5.87; pIC50 (PKCα (h)): 5.60; pIC50 (CHK1 [1]): 6.63; pIC50 (CHK2): 8.10
5 | NC1=N/C(=C2/CCNC(=O)c3[nH]ccc32)C(=O)N1 [debromohymenialdisine] | – | – | – | – | – | – | – | – | – | – | – | – | – | Inhibition of checkpoint kinase CHK1 (in words) (CHK1 [2]): low micromolar concentrations
